The target in the assay is Glycogen synthase kinase-3 beta (Homo sapiens, UniProt P49841). Nature of the assay: GSK-3beta Kinase Inhibition Assay. To be noted: pH 7.5; 37 °C. The method, then:
Human GSK-3beta was expressed as the N-terminal FLAG-tagged protein using a baculovirus expression system. The kinase assay was conducted in a 96-well plate assay format. The kinase reactions were initiated by addition of ATP-solution (final 500 nM), and were incubated for 90 min at 37 deg C for GSK-3 beta. The reactions were terminated by the addition of Kinase-Glo reagent containing EDTA. […] The reaction window was calculated from the difference of the average signals obtained from the control (5% DMSO) and the background wells. […] The best-fit lines were obtained by analyzing the logistic fitting equation.

Chain of Glycogen synthase kinase-3 beta (P49841 whole entry): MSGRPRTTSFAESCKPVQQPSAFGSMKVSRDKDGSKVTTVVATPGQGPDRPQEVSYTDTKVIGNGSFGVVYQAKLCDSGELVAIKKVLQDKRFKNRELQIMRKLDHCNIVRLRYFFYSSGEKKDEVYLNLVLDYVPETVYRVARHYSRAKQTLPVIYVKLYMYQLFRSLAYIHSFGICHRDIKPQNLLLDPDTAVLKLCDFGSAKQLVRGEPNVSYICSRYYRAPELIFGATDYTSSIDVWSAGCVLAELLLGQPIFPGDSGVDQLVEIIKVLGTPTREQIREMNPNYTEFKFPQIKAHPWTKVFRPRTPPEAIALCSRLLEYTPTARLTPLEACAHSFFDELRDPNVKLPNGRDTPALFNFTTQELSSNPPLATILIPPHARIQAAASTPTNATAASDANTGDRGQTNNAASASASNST

The term IC50 denotes the midpoint of a concentration-inhibition curve. `COc1ccc(CSc2nnc(-c3ccc4nccn4c3)o2)cc1C(F)(F)F` [oxadiazole derivative, 20q] had a concentration for half-maximal inhibition (IC50) of 6.5 nM.

The values above are taken from BindingDB's records for doi:10.1016/j.bmc.2009.01.019 (Takeda Pharmaceutical, 2009).
